Reference: PubChem BioAssay (NCI)
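Test compounds were applied to cells in 96-well plates for 48 hours at 5 doses. GI50 = concentration required for 50% inhibition of growth. TGI is the concentration that stops growth completely.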

What was measured:
Assay in all cases: NCI-60 cell line screen, 48 h
786-0 renal = tested on: 786-0 renal
A498 renal = tested on: A498 renal
A549 NSCLC = tested on: A549 NSCLC
ACHN renal = tested on: ACHN renal
BT-549 breast = tested on: BT-549 breast
CAKI-1 renal = tested on: CAKI-1 renal
COLO 205 colon = tested on: COLO 205 colon
DU-145 prostate = tested on: DU-145 prostate
EKVX NSCLC = tested on: EKVX NSCLC
HCC-2998 colon = tested on: HCC-2998 colon
HCT-116 colon = tested on: HCT-116 colon
HCT-15 colon = tested on: HCT-15 colon
HL-60(TB) leukemia = tested on: HL-60(TB) leukemia
HOP-62 NSCLC = tested on: HOP-62 NSCLC
HOP-92 NSCLC = tested on: HOP-92 NSCLC
HS 578T breast = tested on: HS 578T breast
HT29 colon = tested on: HT29 colon
IGROV1 ovarian = tested on: IGROV1 ovarian
K-562 leukemia = tested on: K-562 leukemia
KM12 colon = tested on: KM12 colon
LOX IMVI melanoma = tested on: LOX IMVI melanoma
M14 melanoma = tested on: M14 melanoma
MCF7 breast = tested on: MCF7 breast
MDA-MB-231 breast = tested on: MDA-MB-231 breast
MDA-MB-435 = tested on: MDA-MB-435
MOLT-4 leukemia = tested on: MOLT-4 leukemia
NCI-H226 lung = tested on: NCI-H226 lung
NCI-H460 lung = tested on: NCI-H460 lung
NCI-H522 lung = tested on: NCI-H522 lung
NCI/ADR-RES ovarian = tested on: NCI/ADR-RES ovarian
OVCAR-3 ovarian = tested on: OVCAR-3 ovarian
OVCAR-4 ovarian = tested on: OVCAR-4 ovarian
OVCAR-5 ovarian = tested on: OVCAR-5 ovarian
OVCAR-8 ovarian = tested on: OVCAR-8 ovarian
PC-3 prostate = tested on: PC-3 prostate
RPMI-8226 leukemia = tested on: RPMI-8226 leukemia
SF-268 CNS = tested on: SF-268 CNS
SF-295 CNS = tested on: SF-295 CNS
SF-539 CNS = tested on: SF-539 CNS
SK-MEL-2 melanoma = tested on: SK-MEL-2 melanoma
SK-MEL-28 melanoma = tested on: SK-MEL-28 melanoma
SK-MEL-5 melanoma = tested on: SK-MEL-5 melanoma
SK-OV-3 ovarian = tested on: SK-OV-3 ovarian
SN12C renal = tested on: SN12C renal
SNB-19 CNS = tested on: SNB-19 CNS
SNB-75 CNS = tested on: SNB-75 CNS
SR leukemia = tested on: SR leukemia
SW-620 colon = tested on: SW-620 colon
T-47D breast = tested on: T-47D breast
TK-10 renal = tested on: TK-10 renal
U251 CNS = tested on: U251 CNS
UACC-257 melanoma = tested on: UACC-257 melanoma
UACC-62 melanoma = tested on: UACC-62 melanoma
UO-31 renal = tested on: UO-31 renal
CCRF-CEM leukemia = tested on: CCRF-CEM leukemia
MALME-3M melanoma = tested on: MALME-3M melanoma
NCI-H23 lung = tested on: NCI-H23 lung
RXF 393 renal = tested on: RXF 393 renal

## COC(=O)CN(CC1O[C@@H]2OC(C)(C)O[C@@H]2C1N=[N+]=[N-])C(=O)OCc1ccccc1 (stereo partly specified)
786-0 renal
  TGI: > 100 µM
A498 renal
  TGI: > 100 µM
A549 NSCLC
  TGI: > 100 µM
ACHN renal
  TGI: > 100 µM
BT-549 breast
  TGI: > 100 µM
CAKI-1 renal
  TGI: > 100 µM
COLO 205 colon
  TGI: > 100 µM
DU-145 prostate
  TGI: > 100 µM
EKVX NSCLC
  TGI: > 100 µM
HCC-2998 colon
  TGI: > 100 µM
HCT-116 colon
  TGI: > 100 µM
HCT-15 colon
  TGI: > 100 µM
HL-60(TB) leukemia
  TGI: > 100 µM
HOP-62 NSCLC
  TGI: > 100 µM
HOP-92 NSCLC
  TGI: > 100 µM
HS 578T breast
  TGI: > 100 µM
HT29 colon
  TGI: > 100 µM
IGROV1 ovarian
  TGI: > 100 µM
K-562 leukemia
  TGI: > 100 µM
KM12 colon
  TGI: > 100 µM
LOX IMVI melanoma
  TGI: > 100 µM
M14 melanoma
  TGI: > 100 µM
MCF7 breast
  TGI: > 100 µM
MDA-MB-231 breast
  TGI: > 100 µM
MDA-MB-435
  TGI: > 100 µM
MOLT-4 leukemia
  TGI: > 100 µM
NCI-H226 lung
  TGI: > 100 µM
NCI-H460 lung
  TGI: > 100 µM
NCI-H522 lung
  TGI: > 100 µM
NCI/ADR-RES ovarian
  TGI: > 100 µM
OVCAR-3 ovarian
  TGI: > 100 µM
OVCAR-4 ovarian
  TGI: > 100 µM
OVCAR-5 ovarian
  TGI: > 100 µM
OVCAR-8 ovarian
  TGI: > 100 µM
PC-3 prostate
  TGI: > 100 µM
RPMI-8226 leukemia
  TGI: > 100 µM
SF-268 CNS
  TGI: > 100 µM
SF-295 CNS
  TGI: > 100 µM
SF-539 CNS
  TGI: > 100 µM
SK-MEL-2 melanoma
  TGI: > 100 µM
SK-MEL-28 melanoma
  TGI: > 100 µM
SK-MEL-5 melanoma
  TGI: > 100 µM
SK-OV-3 ovarian
  TGI: > 100 µM
SN12C renal
  TGI: > 100 µM
SNB-19 CNS
  TGI: > 100 µM
SNB-75 CNS
  TGI: > 100 µM
SR leukemia
  TGI: > 100 µM
SW-620 colon
  TGI: > 100 µM
T-47D breast
  TGI: > 100 µM
TK-10 renal
  TGI: > 100 µM
U251 CNS
  TGI: > 100 µM
UACC-257 melanoma
  TGI: > 100 µM
UACC-62 melanoma
  TGI: > 100 µM
UO-31 renal
  TGI: > 100 µM

## CN(C)c1cc[n+](/C(NS(=O)(=O)c2cc(C(=O)Nc3ccc(Cl)cc3)c(Cl)cc2[S-])=C(\C#N)C(=O)c2ccccc2)cc1
786-0 renal
  GI50: > 100 µM
  TGI: > 100 µM
A549 NSCLC
  GI50: 41.5 µM
  TGI: > 100 µM
ACHN renal
  GI50: 50 µM
  TGI: > 100 µM
BT-549 breast
  GI50: 25.4 µM
  TGI: 82.8 µM
CAKI-1 renal
  GI50: 18.7 µM
  TGI: 43 µM
CCRF-CEM leukemia
  GI50: 33.1 µM
  TGI: > 100 µM
COLO 205 colon
  GI50: 30 µM
  TGI: > 100 µM
DU-145 prostate
  GI50: 17.2 µM
  TGI: 82.6 µM
EKVX NSCLC
  GI50: 29.3 µM
  TGI: 95.9 µM
HCC-2998 colon
  GI50: 20.3 µM
  TGI: 57.2 µM
HCT-116 colon
  GI50: 14.9 µM
  TGI: 34.3 µM
HCT-15 colon
  GI50: 17.4 µM
  TGI: 65.1 µM
HL-60(TB) leukemia
  GI50: > 100 µM
  TGI: > 100 µM
HOP-62 NSCLC
  GI50: 69.5 µM
  TGI: > 100 µM
HOP-92 NSCLC
  GI50: 13.9 µM
  TGI: 36.3 µM
HS 578T breast
  GI50: 26.1 µM
  TGI: 67 µM
IGROV1 ovarian
  GI50: 84.7 µM
  TGI: > 100 µM
K-562 leukemia
  GI50: 89.4 µM
  TGI: > 100 µM
KM12 colon
  GI50: 40.6 µM
  TGI: > 100 µM
LOX IMVI melanoma
  GI50: 49.7 µM
  TGI: > 100 µM
M14 melanoma
  GI50: 35.6 µM
  TGI: > 100 µM
MALME-3M melanoma
  GI50: 31.7 µM
  TGI: > 100 µM
MCF7 breast
  GI50: 25.1 µM
  TGI: > 100 µM
MDA-MB-231 breast
  GI50: 16.7 µM
  TGI: 48.5 µM
MDA-MB-435
  GI50: 36.5 µM
  TGI: > 100 µM
MOLT-4 leukemia
  GI50: 26.8 µM
  TGI: > 100 µM
NCI-H226 lung
  GI50: 21.6 µM
  TGI: 49.3 µM
NCI-H23 lung
  GI50: 41.2 µM
  TGI: > 100 µM
NCI-H460 lung
  GI50: 14.4 µM
  TGI: 49.4 µM
NCI-H522 lung
  GI50: 23.7 µM
  TGI: 58.5 µM
NCI/ADR-RES ovarian
  GI50: > 100 µM
  TGI: > 100 µM
OVCAR-3 ovarian
  GI50: 26.6 µM
  TGI: 98.6 µM
OVCAR-4 ovarian
  GI50: 18 µM
  TGI: 38.8 µM
OVCAR-5 ovarian
  GI50: 22.7 µM
  TGI: 53 µM
OVCAR-8 ovarian
  GI50: 39.1 µM
  TGI: > 100 µM
PC-3 prostate
  GI50: 24.9 µM
  TGI: 75.5 µM
RPMI-8226 leukemia
  GI50: 40.9 µM
  TGI: > 100 µM
RXF 393 renal
  GI50: 55.4 µM
  TGI: > 100 µM
SF-268 CNS
  GI50: 40.6 µM
  TGI: > 100 µM
SF-295 CNS
  GI50: 27.1 µM
  TGI: 68.7 µM
SF-539 CNS
  GI50: 11.9 µM
  TGI: 24.8 µM
SK-MEL-2 melanoma
  GI50: 85 µM
  TGI: > 100 µM
SK-MEL-28 melanoma
  GI50: 30.8 µM
  TGI: > 100 µM
SK-MEL-5 melanoma
  GI50: 21.3 µM
  TGI: 81.8 µM
SK-OV-3 ovarian
  GI50: 36.5 µM
  TGI: 99.3 µM
SN12C renal
  GI50: 79.8 µM
  TGI: > 100 µM
SNB-19 CNS
  GI50: 37.7 µM
  TGI: > 100 µM
SNB-75 CNS
  GI50: 31.1 µM
  TGI: > 100 µM
SR leukemia
  GI50: > 100 µM
  TGI: > 100 µM
SW-620 colon
  GI50: 32 µM
  TGI: > 100 µM
T-47D breast
  GI50: 9.64 µM
  TGI: 77.7 µM
TK-10 renal
  GI50: 29.1 µM
  TGI: > 100 µM
U251 CNS
  GI50: 61 µM
  TGI: > 100 µM
UACC-257 melanoma
  GI50: 90.2 µM
  TGI: > 100 µM
UACC-62 melanoma
  GI50: 29.3 µM
  TGI: 98.6 µM
UO-31 renal
  GI50: 23.8 µM
  TGI: 54.7 µM

## CC(=O)OC1C2CCC1C1C2N=NN1c1ccc([N+](=O)[O-])cc1 (stereo unspecified)
786-0 renal
  TGI: > 100 µM
A498 renal
  TGI: > 100 µM
A549 NSCLC
  TGI: > 100 µM
ACHN renal
  TGI: > 100 µM
BT-549 breast
  TGI: > 100 µM
CCRF-CEM leukemia
  TGI: > 100 µM
COLO 205 colon
  TGI: > 100 µM
DU-145 prostate
  TGI: > 100 µM
EKVX NSCLC
  TGI: > 100 µM
HCC-2998 colon
  TGI: > 100 µM
HCT-116 colon
  TGI: > 100 µM
HCT-15 colon
  TGI: > 100 µM
HL-60(TB) leukemia
  TGI: > 100 µM
HOP-62 NSCLC
  TGI: > 100 µM
HOP-92 NSCLC
  TGI: > 100 µM
HS 578T breast
  TGI: > 100 µM
HT29 colon
  TGI: > 100 µM
IGROV1 ovarian
  TGI: > 100 µM
KM12 colon
  TGI: > 100 µM
LOX IMVI melanoma
  TGI: > 100 µM
M14 melanoma
  TGI: > 100 µM
MALME-3M melanoma
  TGI: > 100 µM
MCF7 breast
  TGI: > 100 µM
MDA-MB-231 breast
  TGI: > 100 µM
MDA-MB-435
  TGI: > 100 µM
MOLT-4 leukemia
  TGI: > 100 µM
NCI-H226 lung
  TGI: > 100 µM
NCI-H23 lung
  TGI: > 100 µM
NCI-H460 lung
  TGI: > 100 µM
NCI-H522 lung
  TGI: > 100 µM
NCI/ADR-RES ovarian
  TGI: > 100 µM
OVCAR-3 ovarian
  TGI: > 100 µM
OVCAR-4 ovarian
  TGI: > 100 µM
OVCAR-5 ovarian
  TGI: > 100 µM
OVCAR-8 ovarian
  TGI: > 100 µM
PC-3 prostate
  TGI: > 100 µM
RPMI-8226 leukemia
  TGI: > 100 µM
SF-268 CNS
  TGI: > 100 µM
SF-295 CNS
  TGI: > 100 µM
SF-539 CNS
  TGI: > 100 µM
SK-MEL-2 melanoma
  TGI: > 100 µM
SK-MEL-28 melanoma
  TGI: > 100 µM
SK-MEL-5 melanoma
  TGI: > 100 µM
SK-OV-3 ovarian
  TGI: > 100 µM
SN12C renal
  TGI: > 100 µM
SNB-19 CNS
  TGI: > 100 µM
SNB-75 CNS
  TGI: > 100 µM
SR leukemia
  TGI: > 100 µM
SW-620 colon
  TGI: > 100 µM
T-47D breast
  TGI: > 100 µM
TK-10 renal
  TGI: > 100 µM
U251 CNS
  TGI: > 100 µM
UACC-257 melanoma
  TGI: > 100 µM
UACC-62 melanoma
  TGI: > 100 µM
UO-31 renal
  TGI: > 100 µM
